pIC50: −log10 of the molar value.
system: Onchocerca gutturosa adult male worms; assay: Onchocerca gutturosa in vitro screening model: adult worm motility score and MTT/formazan viability; format: cell-based; settings: read-out: O. gutt Activity class

SMILES	pIC50
N#Cc1ccccc1S(=O)(=O)Nc1cccc2cccnc12 [Compound 249, 2-cyano-N-(quinolin-8-yl)benzene-sulfonamide]	6.30 to 6.70
N#Cc1cccc(S(=O)(=O)Nc2cccc3cccnc23)c1 [Compound 250, 3-cyano-N-(quinolin-8-yl)benzene-sulfonamide]	5.30 to 6.30
Cn1ccnc1S(=O)(=O)Nc1cccc2cccnc12 [Compound 251, 1-methyl-N-(quinolin-8-yl)-1H-imidazole-2-sulfonamide]	> 6.70
Cn1nccc1S(=O)(=O)Nc1cccc2cccnc12 [Compound 252, 1-methyl-N-(quinolin-8-yl)-1H-pyrazole-5-sulfonamide]	5.30 to 6.30
Cc1cc(C)cc(S(=O)(=O)Nc2cccc3cccnc23)c1 [Compound 254, 3,5-dimethyl-N-(quinolin-8-yl)benzene-sulfonamide]	> 6.70
Cn1ccc(S(=O)(=O)Nc2cccc3cccnc23)n1 [Compound 255, 1-methyl-N-(quinolin-8-yl)-1H-pyrazole-3-sulfonamide]	6.30 to 6.70
CN(c1cccc2cccnc12)S(=O)(=O)c1ccccn1 [Compound 256, N-methyl-N-(quinolin-8-yl)pyridine-2-sulfonamide]	5.30 to 6.30
O=S(=O)(Nc1cccc2cccnc12)c1ccc(Cl)cn1 [Compound 259, 5-chloro-N-(quinolin-8-yl)pyridine-2-sulfonamide]	5.30 to 6.30
O=S(=O)(Nc1ccc2cccnc2c1)c1ccccn1 [Compound 262, N-(quinolin-7-yl)pyridine-2-sulfonamide]	5.30 to 6.30
Cc1ccc(S(=O)(=O)Nc2cccc3cccnc23)cc1C [Compound 273, 3,4-dimethyl-N-(quinolin-8-yl)benzenesulfon-amide]	> 6.70
O=S(=O)(Nc1cccc2cccnc12)c1ccccc1C(F)(F)F [Compound 274, N-(quinolin-8-yl)-2-(trifluoromethyl) benzene-sulfonamide]	> 6.70
O=S(=O)(Nc1cccc2cccnc12)c1ccc(F)cc1F [Compound 275, 2,4-difluoro-N-(quinolin-8-yl)benzene-sulfonamide]	6.30 to 6.70
O=S(=O)(Nc1cccc2cccnc12)c1cccnc1 [Compound 277, N-(quinolin-8-yl)pyridine-3-sulfonamide]	5.30 to 6.30
O=S(=O)(Nc1cccc2cccnc12)c1ccc(Cl)cc1Cl [Compound 278, 2,4-dichloro-N-(quinolin-8-yl)benzene-sulfonamide]	6.30 to 6.70
N#Cc1ccc(S(=O)(=O)Nc2cccc3cccnc23)cc1 [Compound 279, 4-cyano-N-(quinolin-8-yl)benzene-sulfonamide]	6.30 to 6.70
O=S(=O)(Nc1cccc2cccnc12)c1ccco1 [Compound 281, N-(quinolin-8-yl)furan-2-sulfonamide]	5.30 to 6.30
O=S(=O)(Nc1cccc2cccnc12)c1ccc2ccccc2c1 [Compound 282, N-(quinolin-8-yl)naphthalene-2-sulfonamide]	6.30 to 6.70
O=S(=O)(Nc1cccc2cccnc12)c1cccc(F)c1 [Compound 283, 3-fluoro-N-(quinolin-8-yl)benzene-sulfonamide]	6.30 to 6.70
Cc1ccc(S(=O)(=O)Nc2cccc3cccnc23)cc1 [Compound 284, 4-methyl-N-(quinolin-8-yl)benzene-sulfonamide]	> 6.70
O=S(=O)(Nc1cccc2cccnc12)c1ccc(Cl)cc1 [Compound 285, 4-chloro-N-(quinolin-8-yl)benzene-sulfonamide]	> 6.70

system: Dirofilaria immitis; assay: Heartworm screen Dirofilaria immitis (stage DiMF/DiL4 not specified in the tables); format: cell-based; settings: read-out: D. immitis Activity class

SMILES	pIC50
Cc1ccnc2c(NS(=O)(=O)c3ccc(C(F)(F)F)nc3)cccc12 [Compound 8, N-(4-methyl-quinolin-8-yl)-6-(trifluoro-methyl)pyr-idine-3-sulfon-amide]	6.30 to 6.70
COc1ccnc2c(NS(=O)(=O)c3ccc(C(F)(F)F)nc3)cccc12 [Compound 10, N-(4-meth-oxyquinolin-8-yl)-6-(trifluoro-methyl)pyr-idine-3-sulfonamide]	5.30 to 6.30
COc1cnc2c(NS(=O)(=O)c3ccc(C(F)(F)F)nc3)cccc2c1 [Compound 11, N-(3-meth-oxyquinolin-8-yl)-6-(trifluoro-methyl)pyr-idine-3-sulfonamide]	5.30 to 6.30
Cc1cnc2c(NS(=O)(=O)c3ncccc3C)cccc2c1 [Compound 66, 3-methyl-N-(3-methyl-quinolin-8-yl)pyridine-2-sulfonamide]	5.30 to 6.30
Cc1ccc2cccc(NS(=O)(=O)c3ncccc3C)c2n1 [Compound 67, 3-methyl-N-(2-methyl-quinolin-8-yl)pyridine-2-sulfonamide]	5.30 to 6.30
CCn1ccnc1S(=O)(=O)Nc1cccc2c(Cl)ccnc12 [Compound 85, N-(4-chloro-quinolin-8-yl)-1-ethyl-1H-imidazole-2-sulfonamide]	5.30 to 6.30
CCn1ccnc1S(=O)(=O)Nc1cccc2c(C)ccnc12 [Compound 104, 1-ethyl-N-(4-methylquin-olin-8-yl)-1H-imidazole-2-sulfonamide]	6.30 to 6.70
COc1ccc2cccnc2c1NS(=O)(=O)c1ccc(C)cn1 [Compound 111, N-(7-methoxy-quinolin-8-yl)-5-methylpyr-idine-2-sulfonamide]	5.30 to 6.30
Cc1ccc(S(=O)(=O)Nc2cc(Cl)cc3cccnc23)nc1 [Compound 115, N-(6-chloro-quinolin-8-yl)-5-methylpyr-idine-2-sulfon-amide]	5.30 to 6.30
O=S(=O)(Nc1c(Cl)cc(F)c2cccnc12)c1ncccc1C1CC1 [Compound 140, N-(7-chloro-5-fluoroquinolin-8-yl)-3-cyclo-propylpyridine-2-sulfonamide]	5.30 to 6.30
O=S(=O)(Nc1cccc2cccnc12)c1ccc(C2CC2)nc1 [Compound 142, 6-cyclopropyl-N-(quinolin-8-yl)pyridine-3-sulfonamide]	5.30 to 6.30
COc1ccc(S(=O)(=O)Nc2cccc3cccnc23)cn1 [Compound 144, 6-methoxy-N-(quinolin-8-yl)pyridine-3-sulfonamide]	5.30 to 6.30
O=S(=O)(Nc1cccc2cccnc12)c1ccc(C(F)(F)F)cn1 [Compound 145, N-(quinolin-8-yl)-5-(trifluoromethyl) pyridine-2-sulfonamide]	6.30 to 6.70
O=S(=O)(Nc1cccc2cccnc12)c1cccnc1C(F)(F)F [Compound 146, N-(quinolin-8-yl)-2-(trifluoromethyl) pyridine-3-sulfonamide]	5.30 to 6.30
O=S(=O)(Nc1cccc2cccnc12)c1cnccc1C(F)(F)F [Compound 147, N-(quinolin-8-yl)-4-(trifluoromethyl) pyridine-3-sulfonamide]	5.30 to 6.30
Cc1ccncc1S(=O)(=O)Nc1cccc2cccnc12 [Compound 148, 4-methyl-N-(quinolin-8-yl)pyridine-3-sulfonamide]	5.30 to 6.30
Cc1cnccc1S(=O)(=O)Nc1cccc2cccnc12 [Compound 149, 3-methyl-N-(quinolin-8-yl)pyridine-4-sulfonamide]	5.30 to 6.30

SMILES	pIC50
Cc1ccc(C(F)(F)F)nc1S(=O)(=O)Nc1cccc2cccnc12 [Compound 163, 3-methyl-N-(quinolin-8-yl)-6-(trifluoromethyl) pyridine-2-sulfonamide]	5.30 to 6.30
Cc1cc(C)c(S(=O)(=O)Nc2cccc3cccnc23)cn1 [Compound 164, 4,6-dimethyl-N-(quinolin-8-yl)pyridine-3-sulfonamide]	5.30 to 6.30
Cc1ccc(C(F)(F)F)c(S(=O)(=O)Nc2cccc3cccnc23)n1 [Compound 165, 6-methyl-N-(quinolin-8-yl)-3-(trifluoromethyl) pyridine-2-sulfonamide]	6.30 to 6.70
Cc1cc(C(F)(F)F)ncc1S(=O)(=O)Nc1cccc2cccnc12 [Compound 166, 4-methyl-N-(quinolin-8-yl)-6-(trifluoromethyl) pyridine-3-sulfonamide]	5.30 to 6.30
O=S(=O)(Nc1cccc2cccnc12)c1nc2ccccc2[nH]1 [Compound 232, N-(quinolin-8-yl)-1H-benzo[d] imidazole-2-sulfonamide]	5.30 to 6.30
Cc1cnc(S(=O)(=O)Nc2cccc3cccnc23)n1C [Compound 233, 1,5-dimethyl-N-(quinolin-8-yl)-1H-imidazole-2-sulfonamide]	6.30 to 6.70
O=S(=O)(Nc1cccc2cccnc12)c1cncc(C(F)(F)F)c1 [Compound 263, N-(quinolin-8-yl)-5-(trifluoromethyl) pyridine-3-sulfonamide]	6.30 to 6.70
Cc1ccccc1S(=O)(=O)Nc1cccc2cccnc12 [Compound 266, 2-methyl-N-(quinolin-8-yl)benzenesulfon-amide]	5.30 to 6.30
CCn1ccnc1S(=O)(=O)Nc1cccc2cc(N(C)C)cnc12 [Compound 286, N-(3-(dimethylamino)quinolin-8-yl)-1-ethyl-1H-imidazole-2-sulfonamide]	6.30 to 6.70
CCn1ccnc1S(=O)(=O)Nc1cccc2cc(C(C)=O)cnc12 [Compound 287, N-(3-acetylquinolin-8-yl)-1-ethyl-1H-imidazole-2-sulfonamide]	6.30 to 6.70
CCn1ccnc1S(=O)(=O)Nc1cccc2c(C(C)=O)ccnc12 [Compound 288, N-(4-acetylquinolin-8-yl)-1-ethyl-1H-imidazole-2-sulfonamide]	6.30 to 6.70
O=S(=O)(Nc1ccc(C(F)(F)F)c2cccnc12)c1nccn1-c1ccccc1 [Compound 289, 1-phenyl-N-(5-(trifluoromethyl)quinolin-8-yl)-1H-imidazole-2-sulfonamide]	> 6.70
CCn1ccnc1S(=O)(=O)Nc1ccc(C#N)c2cccnc12 [Compound 290, N-(5-cyanoquinolin-8-yl)-1-ethyl-1H-imidazole-2-sulfonamide]	6.30 to 6.70
CCn1ccnc1S(=O)(=O)Nc1cccc2c(-c3ccccc3)ccnc12 [Compound 291, 1-ethyl-N-(4-phenylquinolin-8-yl)-1H-imidazole-2-sulfonamide]	> 6.70
O=S(=O)(Nc1ccc(Oc2cccc(C(F)(F)F)c2)c2cccnc12)c1nccn1CC(F)(F)F [Compound 292, 1-(2,2,2-trifluoroethyl)-N-(5-(3-(trifluoromethyl)phenoxy)quinolin-8-yl)-1H-imidazole-2-sulfonamide]	> 6.70
CCn1ccnc1S(=O)(=O)Nc1ccc(Br)c2cccnc12 [Compound 293, N-(5-bromoquinolin-8-yl)-1-ethyl-1H-imidazole-2-sulfonamide]	> 6.70
